Test [1] relates to Streptococcus pneumoniae. As to the kind of experiment: MIC by broth microdilution, antibiotics with and without ALAFAC. The format is cell-based. As to the method: (§1) Methodology: Minimal inhibitory concentrations (MICs) were determined in 96-well microtiter plates using the microdilution method according to approved standards of the CLSI except that Todd-Hewitt medium supplemented with 0.5% yeast extract, which yields reproducible MIC results was used as the test medium for S. pneumoniae. For the remaining species Mueller-Hinton medium was used as indicated by the CLSI standard. Each well contained two-fold dilutions of antibiotic, was seeded with a final bacterial concentration of 10^5 CFU/mL, and was incubated for 18 h at 37° C. in a Synergy II microplate reader (Biotek, Winooski, Vt.) where the OD600 was recorded every 5 minutes to monitor bacterial growth. The MIC was defined as the lowest concentration of antimicrobial agent solution at which no increase in OD600 was detected.
In vitro susceptibility tests. Minimal inhibitory concentrations (MICs) were determined in 96-well microtiter plates using the microdilution method according to approved standards of the CLSI except that Todd-Hewitt medium supplemented with 0.5% yeast extract, which yields reproducible MIC results was used as the test medium for S. pneumoniae. MICs for A. baumanni, and M. catarrhalis were determined in MH media. Two-fold dilutions of a starting antibiotic concentration was added in triplicate into microtiter plate wells (in 96-well plates), were seeded with a final bacterial concentration of ˜10^5 colony forming units (CFU)/mL, and was incubated for 18 h in ambient air at 37° C. in a Synergy II microplate reader (Biotek, Winooski, Vt.) where the OD600 was recorded every 5 minutes to monitor bacterial growth. The MIC was defined as the lowest concentration of antimicrobial agent solution at which no increase in OD600 was detected.

In test [2] the test system is Streptococcus pneumoniae biofilms. Briefly: Static biofilm model, viable counts. Format: cell-based. Particulars: for Biofilm killing: alone or combined; for Minimum antibiotic concentration for bactericidal (>3 log10) activity on biofilms: within 4-6 hours, antibiotic alone. As to the method: Methodology: Pneumococci were grown statically in CDM and S. aureus were grown in trypic soy medium to mid-logarithmic phase (OD600=0.5), washed, and resuspended in fresh pre-warmed medium to a density of 2×10^4 CFU in 500 μl volume, and suspensions were used to seed sterile round glass coverslips in the bottom of polystyrene 24-well plates with or without a substratum of confluent H292 epithelial cells. Biofilms were cultured at 34° C. in 5% CO2 for indicated times with change of culture media every 12 hours and to assess biomass and antibiotic resistance by viable counts (as described).
Biofilms were then washed in PBS and detached by scraping the surface in the presence of 100 μL PBS followed by a rinse with 100 μL PBS. Collected cells were sonicated in a sonication water bath for 2 s followed by vortexing twice for 20 seconds at high speed and the dispersed biofilm cells were used to determine viable CFUs per ml from diluted samples plated and grown on blood agar.
Static Biofilm Model. Pneumococci were grown in CDM to mid-logarithmic phase (OD600=0.5), washed, and resuspended in fresh pre-warmed medium to a density of 2×10^4 CFUs in 500 μl volume, and suspensions were used to seed sterile round glass coverslips in the bottom of polystyrene 24-well plates with a substratum of confluent H292 epithelial cells as described. Biofilms were cultured at 34° C. in 5% CO2 for indicated times with change of culture media every 12 hours and used for SEM studies or to assess biomass and antibiotic resistance by viable plate counts.
Biofilms were then washed in PBS, dispersed by sonication, and collected by pipetting in 100 μL PBS followed by a rinse with 100 μL PBS. Collected cells were then vortexed twice for 20 seconds at high speed and the dispersed biofilm cells were used to determine viable CFUs per ml from diluted samples plated and grown on blood agar. Results are reported as the total number of CFUs per biofilm.

The subject of test [3] is S. pneumoniae nasopharyngeal colonization. As to the kind of experiment: Murine nasopharyngeal colonization model, intranasal treatment. Format: in vivo, Streptococcus pneumoniae. Particulars: for Minimum antibiotic concentration for bactericidal (>3 log10) activity on murine nasopharyngeal colonization: mice, within 12 hours, antibiotic alone; for Colonization level / bacterial burden: mice colonized with SP670 for 48 hours, penicillin up to 100 μg (5,000 μg/ml) intranasally, ALAFAC 50 μg, alone or combined, 12 hours. Here is the method: Methodology: Six-week-old female BALB/cByJ mice from Jackson Laboratories (Bar Harbor, Me., U.S.A.) were maintained in filter-top cages on standard laboratory chow and water ad libitum until use. Mice were colonized as described previously. In short, 20 μl of a bacterial suspension containing 5×10^6 CFUs of EF3030 pneumococci, 1×10^8 CFUs of SP670 pneumococci, or 5×10^7 NRS70 methicillin-resistant S. aureus in PBS were pipetted into the nares of non-anesthetized mice. […] Colonization burden was then assessed after euthanizing the animals by enumerating viable bacteria from harvested nasopharyngeal tissue after the nasal wash. Nasopharyngeal tissue was dissected out as described by removing the upper skull bone, and harvesting the tissue present in the nasal conchae with forceps. Bacterial load was measured by determining viable plate counts from the homogenized tissue.
Mice were colonized as described. In short, 20 μl of a bacterial suspension containing 5×10^6 CFUs of EF3030 pneumococci in PBS or 1×10^8 CFUs of SP670 pneumococci in PBS were pipetted into the nares of non-anesthetized mice. […] Colonization burden was then assessed after euthanizing the animals by enumerating viable bacteria both in a nasopharyngeal lavage obtained by injecting 100 μL PBS in the trachea of mice and collecting it as it flowed out the nares, and from harvested nasopharyngeal tissue after the nasal wash. Nasopharyngeal tissue was dissected out as described by removing the upper skull bone, and harvesting the tissue present in the nasal conchae with forceps. Bacterial load was measured by determining viable plate counts from the nasal lavage or from homogenized tissue.

Test [4] concerns Staphylococcus aureus. Briefly: MIC by broth microdilution, antibiotics with and without ALAFAC. Format: cell-based. Particulars: antibiotic alone. As to the method:
as §1
In vitro susceptibility tests. Minimal inhibitory concentrations (MICs) were determined in 96-well microtiter plates using the microdilution method according to approved standards of the CLSI as described previously. However, rather than Mueller-Hinton broth, Tryptic soy broth (TSB) was used for susceptibility testing as it is the common media used for Staphylococcal growth, and as it has shown more consistent results for a variety of antimicrobials when tested against Staphylococci. […] A two-fold dilution series of antibiotics in triplicate and in the presence or absence of ALAFAC was prepared in 96 well microtiter plates, and each well was seeded with a final bacterial concentration of 10^5 CFU/mL, and was incubated for 24 h at 37° C. in a Synergy 2 microplate reader (Biotek, Winooski, Vt.) where the Optical Density at 600 nm (OD600) was recorded every 5 minutes to monitor bacterial growth. The MIC was defined as the lowest concentration of antimicrobial agent solution where no increase in OD600 was detected.

Entries after “also recorded” stand apart in the source; their conditions may differ. Read-outs that look alike come from different tables or passages of the source. Bounds are passed on as bounds.

On to `CC1(C)S[C@@H]2[C@H](NC(=O)Cc3ccccc3)C(=O)N2[C@H]1C(=O)O` [Penicillin, penicillin G], for which the MIC in test [1] (Streptococcus pneumoniae, S. pneumoniae D39, agent alone, read-out: MIC) came out at 0.01 µg/mL; in test [1] (Streptococcus pneumoniae, S. pneumoniae EF3030, agent alone, read-out: MIC), 0.01 µg/mL; in test [1] (Streptococcus pneumoniae, S. pneumoniae SP670 (penicillin-resistant), agent alone, read-out: MIC) it was 4 µg/mL. Moreover, the Biofilm killing entry in test [2] (D39 48 h biofilm (8.3 log10) on epithelial substratum, 250 μg/ml ALAFAC, 100 μg/ml penicillin) is given as “not bactericidal”; in test [2] (SP670 biofilm, ALAFAC 250 μg/mL, penicillin 100 μg/mL), “almost complete resistance”. Besides, the “Minimum antibiotic concentration for bactericidal (>3 log10) activity on biofilms” value in test [2] (S. pneumoniae D39 biofilm) and in test [2] (S. pneumoniae SP670 biofilm) was greater than 5000 μg/ml in each case. In test [3] (SP670), the “Minimum antibiotic concentration for bactericidal (>3 log10) activity on murine nasopharyngeal colonization” value is greater than 100 μg/dose. The “Colonization level / bacterial burden” value is reported as “no effect” in test [3], “no effect” in test [3] (listed as Penicillin G), “no effect; also recorded: completely resistant” in test [3] (listed as penicillin) and “no change in colonization” in test [3] (listed as penicillin G).

Regarding `COc1cccc(OC)c1C(=O)N[C@@H]1C(=O)N2[C@@H]1SC(C)(C)[C@@H]2C(=O)O` [Methicillin, methicillin], the MIC is 16 µg/mL in test [4] (Staphylococcus aureus, S. aureus 10307570, read-out: MIC); 2 µg/mL in test [4] (Staphylococcus aureus, S. aureus 11090306 (MSSA), read-out: MIC); greater than 128 µg/mL in test [4] (Staphylococcus aureus, S. aureus NRS1, read-out: MIC); 32 µg/mL in test [4] (Staphylococcus aureus, S. aureus NRS70, read-out: MIC); greater than 128 µg/mL in test [4] (Staphylococcus aureus, S. aureus NRS71, read-out: MIC); greater than 128 µg/mL in test [4] (Staphylococcus aureus, S. aureus NRS100, read-out: MIC). Also, the MIC in test [4] (Staphylococcus aureus, S. aureus NRS123, read-out: MIC) came to 32 µg/mL; in test [4] (Staphylococcus aureus, S. aureus NRS384, read-out: MIC), 16 µg/mL.

As for gentamicin, the MIC is 16 µg/mL in test [1] (S. pneumoniae D39, agent alone); 16 µg/mL in test [1] (S. pneumoniae EF3030, agent alone); 16 µg/mL in test [1] (S. pneumoniae in liquid culture); greater than 128 µg/mL in test [4] (S. aureus NRS1); 1 µg/mL in test [4] (S. aureus NRS384). In addition, the Biofilm killing in test [2] (EF3030 48 h biofilm (7.5 log), 100 μg/mL ALAFAC, 200 μg/ml gentamicin, 3 hours) is recorded as 1.1 log. Also, the Biofilm bactericidal activity result in test [2] (EF3030 48 h biofilm, gentamicin 200 or 500 μg/mL alone or with 100 μg/mL ALAFAC, 3 hours) is on record as “Neither concentration of gentamicin was bactericidal”. Moreover, the “Minimum antibiotic concentration for bactericidal (>3 log10) activity on biofilms” value in test [2] (S. pneumoniae D39 biofilm) and in test [2] (S. pneumoniae EF3030 biofilm) was greater than 600 μg/ml throughout. Besides, the “Dose concentration required to eradicate nasal lavage-associated bacteria” value in test [3] (EF3030, gentamicin alone) is 1,500 μg/ml. For the same compound, in test [3] (EF3030), the “Minimum antibiotic concentration for bactericidal (>3 log10) activity on murine nasopharyngeal colonization” value is 100 μg/dose. Further, the “Gentamicin dose at which reduction of bacterial burden starts” value worked out at 3 μg/mouse in test [3] (EF3030, nasal lavage, gentamicin alone) and 10 μg/mouse in test [3] (EF3030, nasopharyngeal tissues, gentamicin alone).

These data come from patent publication US9526766B2, “Potentiation of antibiotic treatment with a protein-lipid complex” (priority 2012, dated 2016).
